Test: Oxidative induction time (OIT) by DSC, compound mixed with polyisoprene
Settings: 0.5 wt % compound mixed with polyisoprene, isothermal 160 °C in O2, DSC; blank 1-2 minutes
Description: OIT is measured according to a procedure carried out in a differential scanning calorimeter (TA Instruments, Q200), also knows as DSC, and is used to predict thermo-oxidative performance of a material. In this procedure, each sample is held in a sample cell and heated under a nitrogen atmosphere to a preselected temperature.
0.5 wt % of a Compound of the Disclosure, or no antidegradant (blank) was mixed with polyisoprene and heated isothermally at 160° C. in O2.

Row | SMILES | Peak time of OIT testing
1 | CCOC(=O)C1=CC(C)(C(=O)OCC)Nc2ccc(Nc3ccccc3)cc21 (stereo not shown) [Compound 3-H, diethyl 2-methyl-6-(phenylamino)-1,2-dihydroquinoline-2,4-dicarboxylate] | 12.9 min
2 | CCC(C)Nc1ccc2c(c1)CCN2 (stereo not shown) [Compound 2-C, N-(sec-butyl) indolin-5-amine] | 14.1 min
3 | Cc1c(NC(C)C)ccc2c1NCCC2(C)c1ccccc1 (stereo not shown) [Compound 2-J, N-isopropyl-4,8-dimethyl-4-phenyl-1,2,3,4-tetrahydroquinolin-7-amine] | 15.6 min
4 | CC(Nc1ccc(Cc2ccc(NC(C)c3ccccc3)cc2)cc1)c1ccccc1 (stereo not shown) [Compound 21-A, 4,4′-methylenebis(N-(1-phenylethyl)aniline)] | 2.6 min
5 | CC1=CC(C)(C)Nc2cc3c(cc21)NC(C)(C)C=C3C [Compound 32-H, 2,2,4,7,7,9-hexamethyl-1,2,6,7-tetrahydropyrido[2,3-g]quinoline] | 6.6 min
6 | CC1=CC(C)(C)Nc2c1ccc(NC(C)CC(C)C)c2C (stereo not shown) [Compound 1-J, 2,2,4,8-tetramethyl-N-(4-methylpentan-2-yl)-1,2-dihydroquinolin-7-amine] | 2.6 min
7 | CC1=CC(C)(C)Nc2c(C)cc(Nc3ccccc3)cc21 [Compound 1-B, 2,2,4,8-tetramethyl-N-phenyl-1,2-dihydroquinolin-6-amine] | 15.2 min
8 | c1coc(CNc2ccc(Cc3ccc(NCc4ccco4)cc3)cc2)c1 [Compound 8-A, 4,4′-methylenebis(N-(furan-2-ylmethyl)aniline)] | 2.9 min
9 | Cc1cc(Nc2ccccc2)cc2c1NC(C)(C)CC2C (stereo not shown) [Compound 2-B, 2,2,4,8-tetramethyl-N-phenyl-1,2,3,4-tetrahydroquinolin-6-amine] | 17.8 min
10 | CC1CC(C)(C)Nc2ccc(Cc3ccc4c(c3)C(C)CC(C)(C)N4)cc21 (stereo not shown) [Compound 2-A, bis(2,2,4-trimethyl-1,2,3,4-tetrahydroquinolin-6-yl) methane] | 10.8 min
11 | CC(C)CCC(C)Nc1ccc(NC(C)CCC(C)C)nc1 (stereo not shown) [Compound 1-E, N^2,N^5-bis(5-methylhexan-2-yl)pyridine-2,5-diamine] | 11.1 min
12 | CC1=CC(C)(C)Nc2ccc(Sc3ccc4c(c3)C(C)=CC(C)(C)N4)cc21 [Compound 153-A, bis(2,2,4-trimethyl-1,2-dihydroquinolin-6-yl)sulfane] | 5.8 min
13 | COc1cc(Nc2ccccc2)cc2c1NC(C)(C)C=C2C [Compound 7-B, 8-methoxy-2,2,4-trimethyl-N-phenyl-1,2-dihydroquinolin-6-amine] | 31.0 min
14 | Cc1cc(NC(C)C)cc2c1NC(c1ccccc1)CC2(C)c1ccccc1 (stereo not shown) [Compound 3-F, N-isopropyl-4,8-dimethyl-2,4-diphenyl-1,2,3,4-tetrahydroquinolin-6-amine] | 43.8 min
15 | Cc1cc(NC(C)C)cc2c1NCC(C)(C)C2 [Compound 47-F, N-isopropyl-3,3,8-trimethyl-1,2,3,4-tetrahydroquinolin-6-amine] | 3.2 min
16 | CC(Nc1ccc(Cc2ccc(NC(C)c3ccco3)cc2)cc1)c1ccco1 (stereo not shown) [Compound 20-A, 4,4′-methylenebis(N-(1-(furan-2-yl)ethyl)aniline)] | 2.3 min
17 | Cc1cc(NC(C)C)cc2c1NCCC2(C)c1ccccc1 (stereo not shown) [Compound 1-F, N-isopropyl-4,8-dimethyl-4-phenyl-1,2,3,4-tetrahydroquinolin-6-amine] | 20.3 min

Row | SMILES | Peak time of OIT testing
18 | CCC(C)Nc1ccc2[nH]ccc2c1 (stereo not shown) [Compound 1-C, N-(sec-butyl)-1H-indol-5-amine] | 19.2 min
19 | CC(C)Nc1ccc(Cc2ccc(NC(C)C)cc2)cc1 [Compound 19-A, 4,4′-methylenebis(N-isopropylaniline)] | 2.7 min
20 | CC(Nc1ccc2[nH]ccc2c1)c1ccccc1 (stereo not shown) [Compound 19-C, N-(1-phenylethyl)-1H-indol-5-amine] | 6.9 min
21 | CC(C)Nc1ccc(Oc2ccc(NC(C)C)cc2)cc1 [Compound 27-A] | 4.2 min
22 | CCC(CC)Nc1cc(C)c2c(c1)C(C)(c1ccccc1)CCN2 (stereo not shown) [Compound 2-F, 4,8-dimethyl-N-(pentan-3-yl)-4-phenyl-1,2,3,4-tetrahydroquinolin-6-amine] | 17.4 min
23 | CC1CC(C)(C)Nc2cc3c(cc21)NC(C)(C)CC3C (stereo not shown) [Compound 33-H, 2,2,4,7,7,9-hexamethyl-1,2,3,4,6,7,8,9-octahydropyrido[2,3-g]quinoline] | 8.3 min
24 | CCOC(=O)C1=CC(C)(C(=O)OCC)Nc2c(C)cc(Nc3ccccc3)cc21 (stereo not shown) [Compound 120-B, diethyl 2,8-dimethyl-6-(phenylamino)-1,2-dihydroquinoline-2,4-dicarboxylate] | 11.5 min
25 | CC1=CC(C)(C)Nc2ccc(Cc3ccc4c(c3)C(C)=CC(C)(C)N4)cc21 [Compound 1-A, bis(2,2,4-trimethyl-1,2-dihydroquinolin-6-yl) methane] | 4.8 min
26 | c1coc(CNc2ccc(C(c3ccc(NCc4ccco4)cc3)c3ccco3)cc2)c1 [Compound 7-A, 4,4′-(furan-2-ylmethylene)bis(N-(furan-2-ylmethyl)aniline)] | 4.1 min
27 | Cc1cc(Cc2cc(C)c(NC(C)C)c(C)c2)cc(C)c1NC(C)C [Compound 154-A, 4,4′-methylenebis(N-isopropyl-2,6-dimethylaniline)] | 1.5 min
28 | Cc1cc(NC(C)c2ccccc2)cc2c1NC(C)(C)CC2 (stereo not shown) [Compound 119-B, 2,2,8-trimethyl-N-(1-phenylethyl)-1,2,3,4-tetrahydroquinolin-6-amine] | 21.9 min
29 | COC1=CC(=Nc2ccccc2)C=C2C(C)=CC(C)(C)N=C12 [Compound 7-D, 8-methoxy-2,2,4-trimethyl-N-phenylquinolin-6(2H)-imine] | 24.6 min
30 | CC(C)Nc1ccc(C(c2ccccc2)c2ccc(NC(C)C)cc2)cc1 [Compound 16-A, 4,4′-(phenylmethylene)bis(N-isopropylaniline)] | 6.6 min
31 | Cc1cc(NC(C)C)cc2c1NC(C(C)C)CC2(C)c1ccccc1 (stereo not shown) [Compound 4-F, N,2-diisopropyl-4,8-dimethyl-4-phenyl-1,2,3,4-tetrahydroquinolin-6-amine] | 19.6 min
32 | CC(C)Nc1ccc(Sc2ccc(NC(C)C)cc2)cc1 [Compound 11-A] | 2.5 min
33 | CC1=CC(C)(C)Nc2ccc(NCc3ccco3)cc21 [Compound 1-H, N-(furan-2-ylmethyl)-2,2,4-trimethyl-1,2-dihydroquinolin-6-amine] | 10.7 min
34 | CC(C)Nc1ccc(C(c2ccc(NC(C)C)cc2)c2ccco2)cc1 [Compound 3-A, 4,4′-(furan-2-ylmethylene)bis(N-isopropylaniline)] | 5.9 min
